Test results from publication PMC10999543, “Identification of kinase modulators as host-directed therapeutics against intracellular methicillin-resistant Staphylococcus aureus” (Frontiers in Cellular and Infection Microbiology, 2024).
Read-outs that look alike come from different tables or passages of the source.

Tests used:
[1] = test system: HeLa cells; assay: Compound screen by flow cytometry: HeLa cell count as surrogate readout of cell viability (z-scoreHeLa); format: cell-based, human; conditions: for cell count rep 1 / z-scoreHeLa rep 1: replicate 1; for cell count rep 2 / z-scoreHeLa rep 2: replicate 2; for cell count rep 3 / z-scoreHeLa rep 3: replicate 3; for z-scoreHeLa mean: mean of 3 replicates
Procedure, shortened: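 The viability surrogate was the count of fixed HeLa cells by flow cytometry, converted to z-scores against DMSO controls with values deviating two-fold excluded. Before counting, cells had been infected with MRSA for 1 h and cleared of extracellular bacteria with gentamicin. They were then exposed overnight to kinase inhibitors in triplicate.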

[2] = test system: intracellular MRSA; format: cell-based, Staphylococcus aureus; conditions: for %GFP+ rep 1 / z-scoreMRSA+ rep 1: replicate 1; for %GFP+ rep 2 / z-scoreMRSA+ rep 2: replicate 2; for %GFP+ rep 3 / z-scoreMRSA+ rep 3: replicate 3; for z-scoreMRSA+ mean: mean of 3 replicates
Procedure, shortened: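 HeLa cells were infected with GFP-expressing MRSA (mean MOI 6.8) for 1 h, treated with 30 µg/ml gentamicin for 15 min, then incubated overnight at 37°C with kinase inhibitors and 5 µg/ml gentamicin. Flow cytometry gave % GFP-positive cells, with cell count as viability. Hits were z-score ≤ -2 (infection) and ≥ -3 (count) versus DMSO.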

[3] = PKIS compound screen raw data, HeLa cell count
[4] = PKIS compound screen, Yes/No call
[5] = PKIS compounds raw data, HeLa cell count
[6] = compound screen, HeLa cell count
[7] = PKIS compound screen raw data, MRSA-infected HeLa cells
[8] = PKIS compound screen, Yes/No call (effect without cell death)
[9] = PKIS compounds raw data, MRSA-infected HeLa cells
[10] = Yes/No: effect without cell death
[11] = compound screen, MRSA-infected HeLa cells
[12] = PKIS compound screen, HeLa cell count
[13] = PKIS compound screen, Yes/No call on z-scoreHeLa
[14] = PKIS compound screen, MRSA-infected HeLa cells
[15] = PKIS compound screen, Yes/No call on z-scoreMRSA+

N#Cc1ccc(CCNc2nccc(-c3cccc(CN4CCNCC4)c3)n2)cc1 [GSK2137462A]
cell count rep 1 [1, 3]: 48589 | cell count rep 2 [1, 3]: 40019 | cell count rep 3 [1, 3]: 40009 | cell death [1, 4]: No | z-scoreHeLa mean ([1]; PKIS compound screen): 0.08 | z-scoreHeLa rep 1 ([1]; PKIS compound screen): -0.12 | z-scoreHeLa rep 2 ([1]; PKIS compound screen): 0.13 | z-scoreHeLa rep 3 ([1]; PKIS compound screen): 0.23 | cell count rep 1 [1, 5]: 5843 | cell count rep 2 [1, 5]: 6203 | cell count rep 3 [1, 5]: 5956 | cell death ([1]; Yes/No call from z-scoreHeLa): No | z-scoreHeLa mean [1, 6]: 3.25 | z-scoreHeLa rep 1 [1, 6]: 3.12 | z-scoreHeLa rep 2 [1, 6]: 2.53 | z-scoreHeLa rep 3 [1, 6]: 4.11 | %GFP+ rep 1 [2, 7]: 14.3% | %GFP+ rep 2 [2, 7]: 14.4% | %GFP+ rep 3 [2, 7]: 16.1% | effect [2, 4]: No | hit [2, 8]: No | z-scoreMRSA+ mean ([2]; PKIS compound screen): -0.14 | z-scoreMRSA+ rep 1 ([2]; PKIS compound screen): -0.07 | z-scoreMRSA+ rep 2 ([2]; PKIS compound screen): -0.12 | z-scoreMRSA+ rep 3 ([2]; PKIS compound screen): -0.24 | %GFP+ rep 1 [2, 9]: 26.7% | %GFP+ rep 2 [2, 9]: 25.4% | %GFP+ rep 3 [2, 9]: 26.0% | effect ([2]; Yes/No call from z-scoreMRSA+): No | hit [2, 10]: No | z-scoreMRSA+ mean [2, 11]: -1.32 | z-scoreMRSA+ rep 1 [2, 11]: -1.20 | z-scoreMRSA+ rep 2 [2, 11]: -1.37 | z-scoreMRSA+ rep 3 [2, 11]: -1.40

COc1cc(C)c(N(C)C(=O)CN(C)C)cc1Nc1nc(Nc2cccc(F)c2C(N)=O)c2cc[nH]c2n1 [GSK2219385A]
cell count rep 1 [1, 3]: 14421 | cell count rep 2 [1, 3]: 25742 | cell count rep 3 [1, 3]: 38560 | z-scoreHeLa mean [1, 12]: -0.95 | z-scoreHeLa rep 1 [1, 12]: -0.86 | z-scoreHeLa rep 2 [1, 12]: -1.69 | z-scoreHeLa rep 3 [1, 12]: -0.31 | cell death [1, 13]: No | %GFP+ rep 1 [2, 7]: 15.2% | %GFP+ rep 2 [2, 7]: 16.3% | %GFP+ rep 3 [2, 7]: 17.5% | z-scoreMRSA+ mean [2, 14]: -0.74 | z-scoreMRSA+ rep 1 [2, 14]: -0.84 | z-scoreMRSA+ rep 2 [2, 14]: -0.67 | z-scoreMRSA+ rep 3 [2, 14]: -0.70 | hit [2, 8]: No | effect [2, 15]: No

Cc1c(Cn2ccn3c(=O)cc(N4CCOCC4)nc23)cccc1C(F)(F)F [GSK2289044B]
cell count rep 1 [1, 3]: 23358 | cell count rep 2 [1, 3]: 26653 | cell count rep 3 [1, 3]: 34666 | z-scoreHeLa mean [1, 12]: -0.65 | z-scoreHeLa rep 1 [1, 12]: 0.49 | z-scoreHeLa rep 2 [1, 12]: -1.52 | z-scoreHeLa rep 3 [1, 12]: -0.93 | cell death [1, 13]: No | %GFP+ rep 1 [2, 7]: 13.5% | %GFP+ rep 2 [2, 7]: 15.4% | %GFP+ rep 3 [2, 7]: 14.7% | z-scoreMRSA+ mean [2, 14]: -1.29 | z-scoreMRSA+ rep 1 [2, 14]: -1.38 | z-scoreMRSA+ rep 2 [2, 14]: -0.94 | z-scoreMRSA+ rep 3 [2, 14]: -1.55 | hit [2, 8]: No | effect [2, 15]: No

O=c1cc(N2CCOCC2)nc2n(Cc3cccc(Cl)c3)ccn12 [GSK2296823A]
cell count rep 1 [1, 3]: 36512 | cell count rep 2 [1, 3]: 34515 | cell count rep 3 [1, 3]: 25382 | cell death ([1]; Yes/No call from z-scoreHeLa): No | z-scoreHeLa mean [1, 6]: 1.30 | z-scoreHeLa rep 1 [1, 6]: 1.07 | z-scoreHeLa rep 2 [1, 6]: 1.58 | z-scoreHeLa rep 3 [1, 6]: 1.26 | %GFP+ rep 1 [2, 7]: 13.9% | %GFP+ rep 2 [2, 7]: 14.9% | %GFP+ rep 3 [2, 7]: 15.7% | effect ([2]; Yes/No call from z-scoreMRSA+): No | hit [2, 10]: No | z-scoreMRSA+ mean [2, 11]: -1.35 | z-scoreMRSA+ rep 1 [2, 11]: -1.30 | z-scoreMRSA+ rep 2 [2, 11]: -1.23 | z-scoreMRSA+ rep 3 [2, 11]: -1.51

Cc1cccc(Cn2ccn3c(=O)cc(N4CCOCC4)nc23)c1 [GSK2297542A]
cell count rep 1 [1, 3]: 36714 | cell count rep 2 [1, 3]: 30989 | cell count rep 3 [1, 3]: 25952 | z-scoreHeLa mean [1, 12]: 1.15 | z-scoreHeLa rep 1 [1, 12]: 1.10 | z-scoreHeLa rep 2 [1, 12]: 0.98 | z-scoreHeLa rep 3 [1, 12]: 1.37 | cell death [1, 4]: No | cell death [1, 13]: No | z-scoreHeLa mean ([1]; PKIS compound screen): 0.56 | z-scoreHeLa rep 1 ([1]; PKIS compound screen): 0.45 | z-scoreHeLa rep 2 ([1]; PKIS compound screen): 0.33 | z-scoreHeLa rep 3 ([1]; PKIS compound screen): 0.91 | cell count rep 1 [1, 5]: 6792 | cell count rep 2 [1, 5]: 6500 | cell count rep 3 [1, 5]: 7025 | %GFP+ rep 1 [2, 7]: 14.5% | %GFP+ rep 2 [2, 7]: 15.7% | %GFP+ rep 3 [2, 7]: 16.8% | z-scoreMRSA+ mean [2, 14]: -1.12 | z-scoreMRSA+ rep 1 [2, 14]: -1.14 | z-scoreMRSA+ rep 2 [2, 14]: -1.01 | z-scoreMRSA+ rep 3 [2, 14]: -1.21 | effect [2, 4]: No | hit [2, 8]: No | effect [2, 15]: No | z-scoreMRSA+ mean ([2]; PKIS compound screen): -0.44 | z-scoreMRSA+ rep 1 ([2]; PKIS compound screen): -0.63 | z-scoreMRSA+ rep 2 ([2]; PKIS compound screen): -0.16 | z-scoreMRSA+ rep 3 ([2]; PKIS compound screen): -0.51 | %GFP+ rep 1 [2, 9]: 23.8% | %GFP+ rep 2 [2, 9]: 25.2% | %GFP+ rep 3 [2, 9]: 24.5%

O=c1cc(N2CCOCC2)nc2n(Cc3cccc4ccccc34)ccn12 [GSK2333389A]
cell count rep 1 [1, 3]: 20901 | cell count rep 2 [1, 3]: 33281 | cell count rep 3 [1, 3]: 38349 | z-scoreHeLa mean [1, 12]: -0.17 | z-scoreHeLa rep 1 [1, 12]: 0.12 | z-scoreHeLa rep 2 [1, 12]: -0.28 | z-scoreHeLa rep 3 [1, 12]: -0.35 | cell death [1, 13]: No | %GFP+ rep 1 [2, 7]: 11.3% | %GFP+ rep 2 [2, 7]: 12.1% | %GFP+ rep 3 [2, 7]: 12.6% | z-scoreMRSA+ mean [2, 14]: -2.07 | z-scoreMRSA+ rep 1 [2, 14]: -2.08 | z-scoreMRSA+ rep 2 [2, 14]: -1.93 | z-scoreMRSA+ rep 3 [2, 14]: -2.19 | hit [2, 8]: Yes | effect [2, 15]: Yes

Cc1cn2c(=O)cc(N3CCOCC3)nc2n1Cc1cccc(Cl)c1Cl [GSK2334006A]
cell count rep 1 [1, 3]: 38408 | cell count rep 2 [1, 3]: 33023 | cell count rep 3 [1, 3]: 28416 | z-scoreHeLa mean [1, 12]: 1.52 | z-scoreHeLa rep 1 [1, 12]: 1.39 | z-scoreHeLa rep 2 [1, 12]: 1.33 | z-scoreHeLa rep 3 [1, 12]: 1.85 | cell death [1, 4]: No | cell death [1, 13]: No | z-scoreHeLa mean ([1]; PKIS compound screen): -0.32 | z-scoreHeLa rep 1 ([1]; PKIS compound screen): -0.18 | z-scoreHeLa rep 2 ([1]; PKIS compound screen): -0.55 | z-scoreHeLa rep 3 ([1]; PKIS compound screen): -0.25 | cell count rep 1 [1, 5]: 5750 | cell count rep 2 [1, 5]: 5179 | cell count rep 3 [1, 5]: 5208 | %GFP+ rep 1 [2, 7]: 10.9% | %GFP+ rep 2 [2, 7]: 13.1% | %GFP+ rep 3 [2, 7]: 15.5% | z-scoreMRSA+ mean [2, 14]: -1.80 | z-scoreMRSA+ rep 1 [2, 14]: -2.11 | z-scoreMRSA+ rep 2 [2, 14]: -1.72 | z-scoreMRSA+ rep 3 [2, 14]: -1.57 | effect [2, 4]: No | hit [2, 8]: No | effect [2, 15]: No | z-scoreMRSA+ mean ([2]; PKIS compound screen): -0.59 | z-scoreMRSA+ rep 1 ([2]; PKIS compound screen): -0.75 | z-scoreMRSA+ rep 2 ([2]; PKIS compound screen): -1.01 | z-scoreMRSA+ rep 3 ([2]; PKIS compound screen): -0.0127 | %GFP+ rep 1 [2, 9]: 23.2% | %GFP+ rep 2 [2, 9]: 20.8% | %GFP+ rep 3 [2, 9]: 27.2%
